Laboratory results published in patent publication US20020198189A1, “New use” (priority 2000, published 2002).

CCCC1c2nc[nH]c2CCN1C(=O)OCc1ccccc1.O=C(O)C(F)(F)F (stereo not shown)
melting point: 166 to 167 °C
